# Measured values published in US11202834B2, “Synthesis and processing of poly(pro-drug) materials for extended drug release and uses thereof” (RENSSELAER POLYTECHNIC INSTITUTE, priority 2018, dated 2021).
# Tests used:
# [1] = system: whole dorsal root ganglion (DRG); test: neurite extension of whole dorsal root ganglion cultured on scaffolds; format: cell-based; conditions: DRG on PLLA/PLLA scaffolds with 100 nM bolus of exogenous E2 at the beginning of culture
# Method: To examine the bioactivity of E2 released during poly(pro-drug) material degradation and the effects of sustained E2 release on neurons, whole dorsal root ganglion (DRG) were cultured on poly(pro-drug) material films to examine the ability of the poly(pro-drug) material to promote neurite extension. To analyze material-derived neurite extension, DRG were cultured onto three types of scaffolds: 1) PLLA fibers electrospun onto a PLLA film (PLLA/PLLA), 2) PLLA fibers electrospun on to a PLLA film with a 100 nM bolus of exogenous E2 at the beginning of culture (PLLA/PLLA+Exo E2), and 3) PLLA fibers electrospun onto a poly(pro-drug) material film (PLLA/P1). […] PLLA fibers were used in this experiment to isolate the effects of E2 released the poly(pro-drug) material as the only factor influencing DRG neurite extension.
# [2] = not told
Young's modulus (Er) [2],Compound,average neurite outgrowth from DRG [1]
,"C[C@]12CC[C@@H]3c4ccc(O)cc4CC[C@H]3[C@@H]1CC[C@@H]2O [E2, 17β-Estradiol]",526.7±273.4 μm
5.38±1.06 GPa,poly(L-lactic acid) [PLLA],
